Experimental data: ChEMBL document CHEMBL1201861, “Genomics of Drug Sensitity in Cancer screening data, Wellcome Trust Sanger Institute”

How the values were obtained:
Test in all cases: cells
Type in all cases: functional, cell-based
Conditions in all cases: Homo sapiens
TE-10 = system: TE-10;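 further: growth inhibition of TE-10 cells, measured by a cell viability assay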
Description: SANGER: Inhibition of human TE-10 cell growth in a cell viability assay.

SK-UT-1 = system: SK-UT-1;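 further: growth inhibition of SK-UT-1 cells, measured by a cell viability assay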
Description: SANGER: Inhibition of human SK-UT-1 cell growth in a cell viability assay.

HD-MY-Z = system: HD-MY-Z;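 further: growth inhibition of HD-MY-Z cells, read out with a cell viability assay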
Description: SANGER: Inhibition of human HD-MY-Z cell growth in a cell viability assay.

GT3TKB = system: GT3TKB;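 further: growth inhibition of the cell line, read out with a cell viability assay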
Description: SANGER: Inhibition of human GT3TKB cell growth in a cell viability assay.

MFM-223 = system: MFM-223
Description: SANGER: Inhibition of human MFM-223 cell growth in a cell viability assay.

L-428 = system: L-428
Description: SANGER: Inhibition of human L-428 cell growth in a cell viability assay.

DMS-114 = system: DMS-114
KALS-1 = system: KALS-1;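 further: growth inhibition of KALS-1 cells, determined with a cell viability assay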
Description: SANGER: Inhibition of human KALS-1 cell growth in a cell viability assay.

no-10 = system: no-10;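 further: growth inhibition of no-10 cells, read out with a cell viability assay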
Description: SANGER: Inhibition of human no-10 cell growth in a cell viability assay.

L-363 = system: L-363
Description: SANGER: Inhibition of human L-363 cell growth in a cell viability assay.

CGTH-W-1 = system: CGTH-W-1;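 further: growth inhibition of human CGTH-W-1 cells measured by cell viability assay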
Description: SANGER: Inhibition of human CGTH-W-1 cell growth in a cell viability assay.

UACC-257 = system: UACC-257
Description: SANGER: Inhibition of human UACC-257 cell growth in a cell viability assay.

K562 = system: K562
Description: SANGER: Inhibition of human K-562 cell growth in a cell viability assay.

HCC1187 = system: HCC1187;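 further: growth inhibition of HCC1187 cells, read out with a cell viability assay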
Description: SANGER: Inhibition of human HCC1187 cell growth in a cell viability assay.

TE-9 = system: TE-9;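 further: cell growth inhibition, measured with a cell viability readout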
Description: SANGER: Inhibition of human TE-9 cell growth in a cell viability assay.

SK-NEP-1 = system: SK-NEP-1;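 further: growth inhibition of human SK-NEP-1 cells, read out by a cell viability assay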
Description: SANGER: Inhibition of human SK-NEP-1 cell growth in a cell viability assay.

OCI-AML2 = system: OCI-AML2;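 further: growth inhibition of OCI-AML2 cells, read out with a cell viability assay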
Description: SANGER: Inhibition of human OCI-AML2 cell growth in a cell viability assay.

NOS-1 = system: NOS-1;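 further: growth inhibition of the human NOS-1 cell line, read out with a cell viability assay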
Description: SANGER: Inhibition of human NOS-1 cell growth in a cell viability assay.

TGBC1TKB = system: TGBC1TKB;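 further: growth inhibition of TGBC1TKB cells, read out by a cell viability assay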
Description: SANGER: Inhibition of human TGBC1TKB cell growth in a cell viability assay.

EKVX = system: EKVX;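 further: growth inhibition of human EKVX cells, read out with a cell viability assay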
Description: SANGER: Inhibition of human EKVX cell growth in a cell viability assay.

U-266 = system: U-266
Description: SANGER: Inhibition of human U-266 cell growth in a cell viability assay.

NCI-H1092 = system: NCI-H1092;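 further: cell growth inhibition measured with a cell viability assay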
Description: SANGER: Inhibition of human NCI-H1092 cell growth in a cell viability assay.

NB10 = system: NB10;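 further: growth inhibition of NB10 cells, read out by a cell viability assay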
Description: SANGER: Inhibition of human NB10 cell growth in a cell viability assay.

OVCAR-4 = system: OVCAR-4;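 further: growth inhibition of human OVCAR-4 cells, measured with a cell viability assay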
Description: SANGER: Inhibition of human OVCAR-4 cell growth in a cell viability assay.

ES3 = system: ES3;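 further: growth inhibition of ES3 cells, read out with a cell viability assay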
Description: SANGER: Inhibition of human ES3 cell growth in a cell viability assay.

BB49-HNC = system: BB49-HNC;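 further: cell viability assay read-out, reported as inhibition of BB49-HNC cell growth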
Description: SANGER: Inhibition of human BB49-HNC cell growth in a cell viability assay.

HEL = system: HEL;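 further: growth inhibition of HEL cells, read out with a cell viability assay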
Description: SANGER: Inhibition of human HEL cell growth in a cell viability assay.

NCI-H747 = system: NCI-H747;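 further: growth inhibition of human NCI-H747 cells, read out by a cell viability assay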
Description: SANGER: Inhibition of human NCI-H747 cell growth in a cell viability assay.

LAMA-84 = system: LAMA-84;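 further: growth inhibition of LAMA-84 cells, read out with a cell viability assay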
Description: SANGER: Inhibition of human LAMA-84 cell growth in a cell viability assay.

CCRF-CEM = system: CCRF-CEM;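 further: inhibition of CCRF-CEM cell growth, measured by a cell viability assay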
Description: SANGER: Inhibition of human CCRF-CEM cell growth in a cell viability assay.

TE-6 = system: TE-6;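 further: growth inhibition of TE-6 cells, read out with a cell viability assay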
Description: SANGER: Inhibition of human TE-6 cell growth in a cell viability assay.

MOLT-4 = system: MOLT-4;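 further: growth inhibition of MOLT-4 cells, determined with a cell viability readout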
Description: SANGER: Inhibition of human MOLT-4 cell growth in a cell viability assay.

MLMA = system: MLMA;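 further: growth inhibition of MLMA cells (human), determined through a cell viability readout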
Description: SANGER: Inhibition of human MLMA cell growth in a cell viability assay.

NCI-H510A = system: NCI-H510A;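 further: growth inhibition of NCI-H510A cells, read out with a cell viability assay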
Description: SANGER: Inhibition of human NCI-H510A cell growth in a cell viability assay.

DEL = system: DEL;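 further: growth inhibition of the human DEL cell line, read out with a cell viability assay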
Description: SANGER: Inhibition of human DEL cell growth in a cell viability assay.

ES4 = system: ES4;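 further: growth inhibition of human ES4 cells, read out by a cell viability assay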
Description: SANGER: Inhibition of human ES4 cell growth in a cell viability assay.

SK-MEL-1 = system: SK-MEL-1;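 further: growth inhibition of human SK-MEL-1 cells, read out by a cell viability assay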
Description: SANGER: Inhibition of human SK-MEL-1 cell growth in a cell viability assay.

DJM-1 = system: DJM-1;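 further: growth inhibition of human DJM-1 cells, read out by a cell viability assay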
Description: SANGER: Inhibition of human DJM-1 cell growth in a cell viability assay.

TE-5 = system: TE-5;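 further: inhibition of cell growth, read out by a cell viability assay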
Description: SANGER: Inhibition of human TE-5 cell growth in a cell viability assay.

LNCaP-Clone-FGC = system: LNCaP-Clone-FGC
Description: SANGER: Inhibition of human LNCaP-Clone-FGC cell growth in a cell viability assay.

KINGS-1 = system: KINGS-1;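 further: cell viability assay measuring suppression of KINGS-1 cell growth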
Description: SANGER: Inhibition of human KINGS-1 cell growth in a cell viability assay.

ONS-76 = system: ONS-76;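 further: growth inhibition of human ONS-76 cells, read out with a cell viability assay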
Description: SANGER: Inhibition of human ONS-76 cell growth in a cell viability assay.

DSH1 = system: DSH1;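 further: growth inhibition of human DSH1 cells, measured with a cell viability readout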
Description: SANGER: Inhibition of human DSH1 cell growth in a cell viability assay.

MZ2-MEL = system: MZ2-MEL;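 further: growth inhibition of MZ2-MEL cells read out with a cell viability assay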
Description: SANGER: Inhibition of human MZ2-MEL cell growth in a cell viability assay.

COLO-800 = system: COLO-800;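 further: growth inhibition of COLO-800 cells, read out with a cell viability assay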
Description: SANGER: Inhibition of human COLO-800 cell growth in a cell viability assay.

A388 = system: A388;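 further: growth inhibition of human A388 cells, read out with a cell viability assay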
Description: SANGER: Inhibition of human A388 cell growth in a cell viability assay.

EW-11 = system: EW-11;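 further: growth inhibition of human EW-11 cells, measured with a cell viability assay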
Description: SANGER: Inhibition of human EW-11 cell growth in a cell viability assay.

SK-N-DZ = system: SK-N-DZ;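 further: growth inhibition of the cancer cell line, read out through a viability assay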
Description: SANGER: Inhibition of human SK-N-DZ cell growth in a cell viability assay.

LB2518-MEL = system: LB2518-MEL;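 further: growth inhibition of human LB2518-MEL cells, measured with a cell viability assay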
Description: SANGER: Inhibition of human LB2518-MEL cell growth in a cell viability assay.

SW982 = system: SW982;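 further: growth inhibition of SW982 cells, read out with a cell viability assay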
Description: SANGER: Inhibition of human SW982 cell growth in a cell viability assay.

NCI-H446 = system: NCI-H446;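 further: growth inhibition of NCI-H446 cells determined by a cell viability assay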
Description: SANGER: Inhibition of human NCI-H446 cell growth in a cell viability assay.

RKO = system: RKO;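 further: growth inhibition of human RKO cells, read out with a cell viability assay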
Description: SANGER: Inhibition of human RKO cell growth in a cell viability assay.

KARPAS-45 = system: KARPAS-45;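 further: inhibition of cell line growth, read out through a viability assay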
Description: SANGER: Inhibition of human KARPAS-45 cell growth in a cell viability assay.

JVM-3 = system: JVM-3;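 further: growth inhibition of human JVM-3 cells, read out with a cell viability assay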
Description: SANGER: Inhibition of human JVM-3 cell growth in a cell viability assay.

HH = system: HH
Description: SANGER: Inhibition of human HH cell growth in a cell viability assay.

NCI-H1304 = system: NCI-H1304;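 further: growth inhibition of the cancer cell line, measured in a cell viability assay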
Description: SANGER: Inhibition of human NCI-H1304 cell growth in a cell viability assay.

NCI-H82 = system: NCI-H82;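 further: growth inhibition of NCI-H82 cells, measured with a cell viability readout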
Description: SANGER: Inhibition of human NCI-H82 cell growth in a cell viability assay.

HAL-01 = system: HAL-01
Description: SANGER: Inhibition of human HAL-01 cell growth in a cell viability assay.

COLO-824 = system: COLO-824
Description: SANGER: Inhibition of human COLO-824 cell growth in a cell viability assay.

KP-N-YS = system: KP-N-YS
Description: SANGER: Inhibition of human KP-N-YS cell growth in a cell viability assay.

RCC10RGB = system: RCC10RGB
Description: SANGER: Inhibition of human RCC10RGB cell growth in a cell viability assay.

COLO-320-HSR = system: COLO-320-HSR
Description: SANGER: Inhibition of human COLO-320-HSR cell growth in a cell viability assay.

A101D = system: A101D
Description: SANGER: Inhibition of human A101D cell growth in a cell viability assay.

EW-13 = system: EW-13
Description: SANGER: Inhibition of human EW-13 cell growth in a cell viability assay.

HT = system: HT
Description: SANGER: Inhibition of human HT cell growth in a cell viability assay.

Measured: IC50

CCNc1cc(N[C@H]2CC[C@@H](O)CC2)nc(Nc2ccc3c(ccn3Cc3ccccc3)c2)n1
> 5.12 µM: SK-UT-1 | HD-MY-Z | GT3TKB | MFM-223 | L-428 | DMS-114 | KALS-1 | no-10 | L-363 | CGTH-W-1 | UACC-257 | K562 | HCC1187 | TE-9 | SK-NEP-1 | OCI-AML2 | TGBC1TKB | EKVX | U-266 | NCI-H1092 | NB10 | OVCAR-4 | ES3 | BB49-HNC | HEL | NCI-H747 | LAMA-84 | CCRF-CEM | TE-6 | MOLT-4 | MLMA | NCI-H510A | DEL | ES4 | SK-MEL-1 | DJM-1 | TE-5 | LNCaP-Clone-FGC | KINGS-1 | ONS-76 | DSH1 | MZ2-MEL | COLO-800 | A388 | EW-11 | SK-N-DZ | LB2518-MEL | SW982 | NCI-H446 | KARPAS-45 | JVM-3 | HH | NCI-H1304 | NCI-H82 | HAL-01 | COLO-824 | KP-N-YS | RCC10RGB | COLO-320-HSR | A101D | EW-13 | HT
3.26 µM: NOS-1
4.39 µM: TE-10
4.72 µM: RKO

COc1cc(C)c(Sc2cnc(NC(=O)c3ccc(CNC(C)C(C)(C)C)cc3)s2)cc1C(=O)N1CCN(C(C)=O)CC1 (stereo not given)
6.62 µM: MZ2-MEL
6.56 µM: ES4
4.81 µM: A101D
1.3 µM: NOS-1
9.44 µM: HD-MY-Z
9.62 µM: OVCAR-4
2.91 µM: SW982
8.9 µM: ES3
3.86 µM: NCI-H747
> 10.2 µM: TE-10 | SK-UT-1 | GT3TKB | MFM-223 | L-428 | DMS-114 | KALS-1 | no-10 | CGTH-W-1 | UACC-257 | K562 | HCC1187 | TE-9 | SK-NEP-1 | TGBC1TKB | EKVX | U-266 | NCI-H1092 | NB10 | BB49-HNC | HEL | LAMA-84 | CCRF-CEM | TE-6 | MOLT-4 | MLMA | NCI-H510A | DEL | SK-MEL-1 | DJM-1 | TE-5 | LNCaP-Clone-FGC | KINGS-1 | ONS-76 | DSH1 | COLO-800 | A388 | EW-11 | SK-N-DZ | LB2518-MEL | NCI-H446 | KARPAS-45 | JVM-3 | HH | NCI-H1304 | NCI-H82 | HAL-01 | COLO-824 | KP-N-YS | RCC10RGB | COLO-320-HSR | EW-13 | HT
8.84 µM: RKO
7.48 µM: OCI-AML2
4.94 µM: L-363
